Values of other authors as cited in patent US20050187388A1, “Method for the preparation of aryl ethers” (priority 2004, published 2005).

What was measured:
8-OH-DPAT hypothermia = settings: in vivo
serotonin reuptake = serotonin reuptake (Homo sapiens, UniProt P31645)
dopamine reuptake = dopamine reuptake (Homo sapiens, UniProt Q01959)
dopamine reuptake, sequence (Q01959 whole entry): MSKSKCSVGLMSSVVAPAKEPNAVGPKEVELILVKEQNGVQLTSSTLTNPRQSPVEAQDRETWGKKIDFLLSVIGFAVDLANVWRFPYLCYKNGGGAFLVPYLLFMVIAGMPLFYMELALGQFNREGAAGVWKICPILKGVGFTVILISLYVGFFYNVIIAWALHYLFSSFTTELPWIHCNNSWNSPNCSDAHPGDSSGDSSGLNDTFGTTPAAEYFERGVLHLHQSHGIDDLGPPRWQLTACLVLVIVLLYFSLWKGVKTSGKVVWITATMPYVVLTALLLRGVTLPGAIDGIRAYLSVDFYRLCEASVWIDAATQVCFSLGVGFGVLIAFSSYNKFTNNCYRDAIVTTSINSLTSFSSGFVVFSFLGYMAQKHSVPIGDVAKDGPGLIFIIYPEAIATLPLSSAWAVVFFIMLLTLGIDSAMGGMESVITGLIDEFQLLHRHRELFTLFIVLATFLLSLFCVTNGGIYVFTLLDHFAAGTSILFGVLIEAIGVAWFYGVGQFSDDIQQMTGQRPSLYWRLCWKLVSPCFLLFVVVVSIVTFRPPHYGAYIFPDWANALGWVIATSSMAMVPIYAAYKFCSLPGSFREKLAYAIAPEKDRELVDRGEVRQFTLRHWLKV

serotonin reuptake, sequence (P31645 whole entry): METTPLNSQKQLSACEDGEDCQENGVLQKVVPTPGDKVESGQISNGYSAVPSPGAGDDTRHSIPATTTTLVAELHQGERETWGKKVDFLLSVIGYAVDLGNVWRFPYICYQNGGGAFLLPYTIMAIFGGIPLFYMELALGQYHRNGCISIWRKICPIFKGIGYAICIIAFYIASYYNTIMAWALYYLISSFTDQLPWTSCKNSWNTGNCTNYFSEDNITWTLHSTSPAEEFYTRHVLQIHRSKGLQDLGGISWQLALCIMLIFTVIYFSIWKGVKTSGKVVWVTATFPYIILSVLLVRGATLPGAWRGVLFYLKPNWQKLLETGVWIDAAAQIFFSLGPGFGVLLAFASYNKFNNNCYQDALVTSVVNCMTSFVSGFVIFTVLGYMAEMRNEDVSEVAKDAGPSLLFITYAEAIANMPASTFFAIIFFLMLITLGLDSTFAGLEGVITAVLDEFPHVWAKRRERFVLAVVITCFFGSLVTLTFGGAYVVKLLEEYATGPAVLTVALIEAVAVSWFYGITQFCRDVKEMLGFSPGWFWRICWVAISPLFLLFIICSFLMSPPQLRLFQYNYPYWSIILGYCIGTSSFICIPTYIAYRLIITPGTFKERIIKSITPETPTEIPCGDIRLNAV

CCOc1ccccc1O[C@@H](c1ccccc1)[C@@H]1CNCCO1 (racemic) [Reboxetine, 2-[α-(2-ethoxyphenoxy)benzyl]morpholine]
effect in the 8-OH-DPAT hypothermia test (8-OH-DPAT hypothermia): ineffective | serotonin reuptake inhibitory activity (serotonin reuptake): only marginal | dopamine reuptake inhibitory activity (dopamine reuptake): no dopamine reuptake inhibitory activity
